According to patent US20200338056A1, “INDUCTION OF SENESCENCE USING PROTON PUMP INHIBITORS” (THE METHODIST HOSPITAL SYSTEM, priority 2016, published 2020):
“Also recorded” adds a separate entry of the source.

Legend:
[1] = system: Human microvascular endothelial cells (ECs); assay: Total nitrate/nitrite (NOx) by Griess colorimetric assay; assay type: cell-based; conditions: ECs treated chronically, vs vehicle
Description: (§1) Cell culture. Human microvascular endothelial cells (ECs) purchased from Lonza (cat # CC-2543, Basel, Switzerland) were cultured continuously for three passages from passage (P) 4 to P6 in the presence of clinically relevant doses of esomeprazole or vehicle (DMSO) (Shin J M, Kim N. Pharmacokinetics and pharmacodynamics of the proton pump inhibitors. Journal of neurogastroenterology and motility. 2013; 19:25-35). All in vitro experiments were performed at P6 upon confluency. […]
(§2) Measurement of superoxide and nitric oxide. Superoxide and nitric oxide were measured in ECs using live cell imaging dyes; DHE (Molecular Probes® cat # D-1168, Eugene, Oreg.) for superoxide and DAF-2DA (Sigma cat #50277, St. Louis, Mo.) for nitric oxide measurement according to the published protocol (Yepuri G, et al., Positive crosstalk between arginase-ii and s6k1 in vascular endothelial inflammation and aging. Aging cell. 2012; 11:1005-1016). Several images per well were captured using Olympus IX51 Inverted fluorescence microscope. Relative fluorescence intensities of images were quantified using NIH ImageJ software. The total NO concentration (NOx) was determined using the Griess colorimetric assay as previously described (Ghebremariam Y T, et al., Fxr agonist int-747 upregulates ddah expression and enhances insulin sensitivity in high-salt fed dahl rats. PloS one. 2013; 8:e60653).

[2] = system: Human microvascular endothelial cells (ECs); assay: Senescence-associated β-galactosidase (SA-β-gal) staining with SYTO cell count; assay type: cell-based; conditions: for endothelial senescence / aging (overall finding): chronic exposure of human ECs; for SA-β-gal-positive cells / total cell count per microscopic field (SYTO-green staining): chronic treatment, at P6, vs vehicle
Description: (§3) Cell culture. Human microvascular endothelial cells (ECs) purchased from Lonza (cat # CC-2543, Basel, Switzerland) were cultured continuously for three passages from passage (P) 4 to P6 in the presence of clinically relevant doses of esomeprazole or vehicle (DMSO) (Shin J M, Kim N. Pharmacokinetics and pharmacodynamics of the proton pump inhibitors. Journal of neurogastroenterology and motility. 2013; 19:25-35). All in vitro experiments were performed at P6 upon confluency. ECs were cultured and maintained in EBM-2 Basal Medium (cat # CC-3156, Lonza, Basel, Switzerland) supplemented with EGM-2 MV SingleQuots™ Kit—growth factors, cytokines, and antibiotics (cat # CC-4147, Lonza, Basel, Switzerland).
Senescence-associated β-galactosidase (SA-β-gal) staining. Senescence of ECs was measured using the Cellular Senescence Assay kit from Cell Biolabs, Inc. (Cat: CBA-230, San Diego, Calif.). The protocol was performed according to the manufacturer's guide. Briefly, Ecs treated continuously for 3 passages with esomeprazole or vehicle were plated in a 6 well plate. Upon confluency, cells were initially fixed and later incubated with SA-β-gal working solution for 16 hours in a non-humidified CO2 free incubator at 37° C. After incubation the cells were counter stained with SYTO® GREEN fluorescent nucleic acid stain (Life Technologies). Several random images per well were taken using light and fluorescent microscope. The SA-β-gal positive cells were counted manually and total cell number per field was quantified using NIH ImageJ software.

telomerase = assay: Telomeric repeat amplification protocol (TRAP) telomerase activity; assay type: cell-based, human; conditions: TRAP assay, esomeprazole and vehicle ECs
Description: Telomere length and telomerase activity. Telomere length in ECs was measured using monochrome multiplex qPCR ([…]) assay as described previously (Ramunas J, et al., Transient delivery of modified mrna encoding tert rapidly extends telomeres in human cells. FASEB journal: official publication of the Federation of American Societies for Experimental Biology. 2015; 29:1930-1939). The telomeric repeat amplification protocol (TRAP) was performed using TRAPeze® Telomerase Detection Kit (EMD Millipore Inc. cat # S7700, Darmstadt, Germany). Experiment was performed according to the manufacturer's instructions. In brief, ECs treated with esomeprazole or vehicle were collected, counted and total protein was isolated from 100,000 cells. The amount of lysate used per reaction was normalized to the amount of 1,000 cells for ECs and 500 cells for telomerase positive control (PC). In short, TRAP was performed at 30° C. for 30 minutes and resulting products were amplified in a 29 cycle PCR reaction. Heat inactivated (hi) lysate samples for each condition were used as internal negative controls.

[3] = system: Human microvascular endothelial cells (ECs); assay: Quantitative PCR (Taqman) gene expression in ECs; assay type: cell-based; conditions: RT-PCR, vs vehicle
Description: as §3
Quantitative PCR and PCR array. Total RNA was isolated from cultured cells using PerfectPure RNA Cultured Cell Kit-50 from 5 PRIME (cat #2900319, San Francisco, Calif.) according to the manufacturer's instruction. Complementary DNA (cDNA) was prepared using gScript™ cDNA SuperMix (Quanta BioSciences, Inc. cat #95048, Beverly, Mass.). Quantitative PCR (qPCR) was performed using Taqman gene expression assays (Applied Biosystems, Foster City, Calif.). All genes analyzed for expression (listed in the table below) were normalized to GAPDH expression and expressed as relative fold changes using the ΔCt method of analysis. Gene expression of shelterin complex genes was quantified using SYBR™ Green Real Time PCR master mix. Primers for genes related to shelterin complex were obtained from Integrated DNA Technologies, Inc. (San Jose, Calif.) and are listed in the table below. RT^2 Profiler PCR Array (Qiagen, Hilden, Germany) was used to assess expression of selected genes associated with specific cellular functions following manufacturer's instructions. Name, catalog numbers and genes detected by the arrays are listed below.

[4] = poor metabolizers (about 3% of whites, 23% of Asians); cited from earlier work
[5] = system: Human microvascular endothelial cells (ECs); assay: Long term studies of endothelial histology (81 days after drug discontinued); assay type: cell-based; conditions: 5 or 10 μmol/L for 3 passages, then 81 days without drug, vs vehicle
Description: Long term studies of endothelial histology. After ECs were exposed to vehicle or ESO (5 or 10 uM) through 3 passages (P4-P6), the treatment with ESO or vehicle was discontinued when the cells reached confluency at P6. Subsequently the cells in all groups were maintained in endothelial growth medium which was routinely replaced with fresh medium every 48 hours for 81 days. Microphotographs were taken at regular intervals throughout, and on the final day of culture.

[6] = system: Human microvascular endothelial cells (ECs); assay: Telomere length by monochrome multiplex qPCR (MMqPCR); assay type: cell-based; conditions: vs vehicle
Description: as §3
Telomere length and telomerase activity. Telomere length in ECs was measured using monochrome multiplex qPCR (MMqPCR) assay as described previously (Ramunas J, et al., Transient delivery of modified mrna encoding tert rapidly extends telomeres in human cells. FASEB journal: official publication of the Federation of American Societies for Experimental Biology. 2015; 29:1930-1939). The telomeric repeat amplification protocol (TRAP) was performed using TRAPeze® Telomerase Detection Kit (EMD Millipore Inc. cat # S7700, Darmstadt, Germany). […] In brief, ECs treated with esomeprazole or vehicle were collected, counted and total protein was isolated from 100,000 cells. […]

PAI-1 = assay: Western blot for PAI-1 protein expression; assay type: cell-based, human; conditions: vs vehicle
Description: as §3
Western blot analysis. Preparation of cell lysate, SDS-PAGE, transfer of proteins onto membrane and western blotting was performed as described previously (Rajapakse A G, et al., Hyperactive s6k1 mediates oxidative stress and endothelial dysfunction in aging: Inhibition by resveratrol. PloS one. 2011; 6:e19237.6). To detect PAI-1 protein expression anti-PAI-1 rabbit monoclonal antibody (Cell Signaling Technology, Inc. cat #11907S, Danvers, Mass.) was used and anti-α-Tubulin mouse monoclonal antibody (Sigma cat # T5168, St. Louis, Mo.) was used to normalize expression.

[7] = system: Human microvascular endothelial cells (ECs); assay: RT2 Profiler PCR array, 331 genes from 5 pathways; assay type: cell-based; conditions: esomeprazole compared to vehicle (DMSO)
Description: as §3
(§4) Quantitative PCR and PCR array. Total RNA was isolated from cultured cells using PerfectPure RNA Cultured Cell Kit-50 from 5 PRIME (cat #2900319, San Francisco, Calif.) according to the manufacturer's instruction. […] Quantitative PCR (qPCR) was performed using Taqman gene expression assays (Applied Biosystems, Foster City, Calif.). All genes analyzed for expression (listed in the table below) were normalized to GAPDH expression and expressed as relative fold changes using the ΔCt method of analysis. Gene expression of shelterin complex genes was quantified using SYBR™ Green Real Time PCR master mix. […] Name, catalog numbers and genes detected by the arrays are listed below.

[8] = system: Human microvascular endothelial cells (ECs); assay: Nitric oxide by DAF-2DA live cell imaging; assay type: cell-based; conditions: ECs treated chronically, vs vehicle
Description: as §1, §2

[9] = system: Human microvascular endothelial cells (ECs); assay: BrdU cell proliferation ELISA; assay type: cell-based; conditions: chronic exposure, 3 passages, vs vehicle
Description: as §3

shelterin complex = assay: Shelterin complex gene expression by SYBR Green RT-PCR; assay type: cell-based, human; conditions: vs vehicle
Description: as §3, §4

[10] = system: Human microvascular endothelial cells (ECs); assay: Superoxide anion by dihydroethidium (DHE) live cell imaging; assay type: cell-based; conditions: ECs treated chronically, vs vehicle
Description: as §1, §2

[11] = system: N-acetyl-β-d-glucosaminidase; assay: N-Acetyl-β-D-Glucosaminidase (NAG) activity assay, EC lysate; assay type: cell-based, human; conditions: ECs treated chronically, vs vehicle
Description: as §1
(§5) Lysosomal studies. Cellular pH, lysosomal cathepsin B and protein aggregation were measured in live ECs using pHrodo™ Green/Red dextran, 10,000 MW dye (cat: P35368/P35372, MOLECULAR PROBES®, Life Technologies, Carlsbad, Calif.), Magic Red™ Cathepsin B Assay Kit (cat: 938, ImmunoChemistry Technologies LLC, Bloomington, Minn.) and PROTEOSTAT® Protein aggregation assay (cat: ENZ-51023-KP002, Enzo Life Sciences, Inc., Farmingdale, N.Y.). The pHrodo™ Green dextran when endocytosed permits visualization of endosomal pH, with an inverse non-linear relationship of fluorescence intensity to pH. […] Fluorescence images were taken using Olympus IX51 Inverted fluorescence microscope at 10× magnification and 40× for protein aggregation. All images were quantified using NIH ImageJ 1.47v software. […] Absorbance was measured using Tecan Infinite® M1000 PRO multimode reader at 405 nm (Tecan, Mannedorf, Switzerland).

[12] = system: Human microvascular endothelial cells (ECs); assay: Lysosomal pH by pHrodo Green/Red dextran fluorescence in live ECs; assay type: cell-based
Description: as §1, §5

[13] = system: Human microvascular endothelial cells (ECs); assay: Network formation assay on growth factor reduced matrigel (angiogenic capacity); assay type: cell-based; conditions: growth factor-depleted matrigel, vs vehicle
Description: as §3
Network formation assay to measure angiogenic capacity. In order to assess angiogenic capacity of ECs, growth factor reduced matrigel from BD Biosciences (cat #354230, San Jose, Calif.) was used. In brief, 24 well flat transparent plates were coated with 200 μl of matrigel/well and allowed to set at 37° C. for one hour. Subsequently, 1×10^5 cells/well were seeded and allowed to incubate for 16 hours at 37° C. Several images per well were obtained using Olympus IX51 Inverted fluorescence and bright field microscope. Network branching was quantified using NIH ImageJ software. Total length is equal to the summed length of all segments, branches and isolated branches not within the main network. […]

acid phosphatase = assay: Acid phosphatase activity assay, EC lysate; assay type: cell-based, human; conditions: ECs treated chronically, 5 and 10 μmol/L, P4-6, vs vehicle
Description: as §1, §5

[14] = system: Human microvascular endothelial cells (ECs); assay: PROTEOSTAT protein aggregation assay in ECs; assay type: cell-based; conditions: ECs treated chronically, vs vehicle
Description: as §1, §5

lysosomal cathepsin B = assay: Magic Red Cathepsin B assay in live ECs; assay type: cell-based, human; conditions: ECs treated chronically, 5 and 10 μmol/L, P4-6, vs vehicle
Description: as §1, §5

COc1ccc2nc([S@@+]([O-])Cc3ncc(C)c(OC)c3C)[nH]c2c1 [esomeprazole]
total nitrate levels (Griess) [1]: decrease
endothelial senescence / aging (overall finding) [2]: accelerated
SA-β-gal-positive cells [2]: increased
total cell count per microscopic field (SYTO-green staining) [2]: decrease
telomerase expression or activity (telomerase): neither group of ECs manifested telomerase expression or activity
expression of COL1A1 ([3]; EndoMT gene): upregulated
expression of SMAD3 ([3]; EndoMT gene): upregulated
expression of TWIST1 ([3]; EndoMT gene): upregulated
expression of DDAH1/2 ([3]; normalized to GAPDH): decrease
expression of eNOS ([3]; normalized to GAPDH): decrease
expression of iNOS ([3]; normalized to GAPDH): decrease
expression of von Willebrand factor [3]: decline
plasminogen activator inhibitor (PAI-1) message expression [3]: upregulated
expression of cell cycle inhibitor p21 gene ([3]; chronic treatment): increased
increase in plasma concentration in CYP2C19 poor metabolizers [4]: 3 fold
histology at the 3-month time point (cell loss, EndoMT) [5]: acceleration of EndoMT; also recorded: some cell loss or EndoMT
telomere length [6]: significant decrease
plasminogen activator inhibitor (PAI-1) protein expression (PAI-1): upregulated
Expression of genes (PCR array) strongly up-regulated, Table 4 gene list ([7]; 52 genes listed AGTR1 to ZEB2): Expressin of genes (PCR array) that are strongly up-regulated (>2 fold) upon
Expression of genes (PCR array) strongly up regulated, Table 5 gene list ([7]; genes listed ACE to VWF): Expression of genes (PCR array) that are strongly up regulated (>2 fold) upon
NO generation (diamino fluorescein 2-diacetate staining) [8]: less
cell proliferation (5-bromo-2′-deoxyuridine assay) [9]: dose-dependently impaired
expression of all 6 genes of the shelterin complex (TRF1, TRF2, POT1, RAP1, TIN2, TPP1) (shelterin complex): global downregulation
superoxide anion (dihydroethidium) [10]: more
N-acetyl-β-d-glucosaminidase activity [11]: does not impair; also recorded: No difference
fluorescence intensity of pH-sensitive dye (pHrodo Green), inversely related to lysosomal pH ([12]; ECs, esomeprazole 5 and 10 μmol/L, 3 passages (P4-6), vs vehicle (DMSO)): significantly reduced
pHrodo red fluorescence (lysosomal distribution) ([12]; second pH-sensitive dye, ESO treated vs vehicle treated ECs): reduced; also recorded: qualitatively similar findings
angiogenic capacity of ECs (network formation) [13]: impaired
activity of acid phosphatase (acid phosphatase): reduced
protein aggregates [14]: increase
activity of lysosomal cathepsin-B (lysosomal cathepsin B): reduced

Cc1nc2c(OCc3ccccc3)cccn2c1CC#N [SCH-28080]
endothelial senescence / aging (overall finding) [2]: accelerated
SA-β-gal-positive cells [2]: increased
total cell count per microscopic field (SYTO-green staining) [2]: decrease
